In US20250367184A1, “CYP11A1 INHIBITOR FOR USE IN THE TREATMENT OF PROSTATE CANCER” (ORION CORPORATION, priority 2021, published 2025):

Assays:
[1] = test system: Patients with progressive mCRPC; test: Clinical study of compound (1B) in progressive mCRPC patients: PSA change from baseline by activating AR gene alteration status; assay type: in vivo, human; settings: for subjects with PSA decline of ≥50% (PSA response): oral 10-20 mg daily with corticosteroids, on ADT, prior ARSi
Text: Patients with progressive mCRPC were enrolled in the clinical trial to study the effect of a CYP11A1 inhibitor 2-5-((1-(methylsulfonyl)piperidin-4-yl)methoxy)-2-((5-(trifluoromethyl) isoindolin-2-yl)methyl)-4/-pyran-4-one (1B). The patients were on ADT therapy and had previously received androgen receptor signalling inhibitor (ARSi) therapy and chemotherapy, or were ineligible for chemotherapy. Three different daily dose levels of compound (1B) with hydrocortisone and fludro-cortisone were given orally to 13 subjects in the dose escalation part. Corticosteroid doses were allowed to be adjusted during the trial based on the subject's clinical condition. The daily doses were 10 mg (10 mg q.d), 15 mg (15 mg q.d) and 20 mg (20 mg q.d). In a separate dosing evaluation part, twice daily dosing of 5 mg and 10 mg of compound (1B), and different glucocorticoid replacement therapy, dexamethasone, and different hydrocortisone dosing regimen were evaluated in 16 patients. Subjects were allowed to continue the therapy until disease progression or intolerable toxicity. Anti-tumour activity was determined by measuring change in the PSA (prostate-specific antigen) value. A decrease in the PSA value indicates anti-tumour activity. PSA response in a patient was defined as at least 50% decline from the baseline PSA value.
(§1) Existence of activating AR-LBD somatic point mutations and AR gene amplification were analysed in plasma cfDNA samples obtained from the patients using the OncoBEAM® prostate cancer digital PCR assay panel (Sysmex Inostics, Inc.) and Guardant360 CDx (Guardant Health, Inc) assay panel. The assay panels were utilized to test the existence of activating AR-LBD mutations including L702H, V716M, V716L, W742C, W742L, H875Y, F877L, T878A, T878S, D891Y, M896T and M896V.

[2] = test system: Patients with progressive mCRPC; test: Clinical study of compound (1A) in progressive mCRPC patients: PSA change from baseline by activating AR gene alteration status; assay type: in vivo, human; settings: for subjects with PSA decline of ≥50% (PSA response): oral 10-150 mg daily with corticosteroids, on ADT, prior ARSi
Text: Patients with progressive mCRPC were enrolled in the clinical trial to study the effect of a CYP11A1 inhibitor 2-(isoindolin-2-ylmethyl)-5-((1-(methylsulfonyl)-piperidin-4-yl)methoxy)-4H-pyran-4-one (1A). The patients were on ADT therapy and had previously received androgen receptor signalling inhibitor (ARSi) therapy and chemotherapy, or were ineligible for chemotherapy. Five different daily dose levels of compound (1A) with dexamethasone and fludrocortisone were given orally to 27 patients in the dose escalation/de-escalation part. Corticosteroid doses were allowed to be adjusted during the trial based on the subject's clinical condition. The daily doses were 10 mg (5 mg b.i.d), 30 mg (15 mg b.i.d.), 50 mg (25 mg b.i.d), 100 mg (50 mg b.i.d.), and 150 mg (75 mg b.i.d.). In a separate dosing evaluation part, once daily dosing of 25 mg of compound (1A), and two different glucocorticoid replacement therapies, hydrocortisone and prednisone, were evaluated in 14 patients. Subjects were allowed to continue the therapy until disease progression or intolerable toxicity. Anti-tumour activity was determined by measuring change in the PSA (prostate-specific antigen) value in PSA evaluable patient population (n=37, at least 4-week value available). A decrease in the PSA value indicates anti-tumour activity. PSA response in a patient was defined as at least 50% decline from the baseline PSA value.
as §1, with “activating AR-LBD point mutations including” for “activating AR-LBD mutations including”

| SMILES | subjects with a PSA response (decline of ≥50%) that were activating AR gene alteration positive ([1]; 6 out of 6 PSA responders) [%] | subjects with PSA decline of ≥50% (PSA response) ([1]; subjects with activating AR gene alteration (6 out of 17)) [%] | subjects with PSA decline of ≥50% (PSA response) ([1]; subjects without an activating AR gene alteration (0 out of 8)) [%] | anti-tumour activity (PSA change) in subjects with versus without activating AR gene alteration ([1]; with alteration n=17 compared to without n=8) | subjects with a PSA response (decline of ≥50%) that were activating AR gene alteration positive ([2]; 12 out of 13 PSA responders) [%] | subjects with PSA decline of ≥50% (PSA response) ([2]; subjects with activating AR gene alteration (12 out of 17)) [%] | subjects with PSA decline of ≥50% (PSA response) ([2]; subjects without an activating AR gene alteration (1 out of 20)) [%] | anti-tumour activity (PSA change) in subjects with versus without activating AR gene alteration ([2]; with alteration n=17 compared to without n=20) |
| --- | --- | --- | --- | --- | --- | --- | --- | --- |
| CS(=O)(=O)N1CCC(COc2coc(CN3Cc4ccc(C(F)(F)F)cc4C3)cc2=O)CC1 [1B, 5-((1-(methylsulfonyl)piperidin-4-yl)methoxy)-2-((5-(trifluoromethyl)isoindolin-2-yl)methyl)-4H-pyran-4-one] | 100 | 35.3 | 0 | substantially higher |  |  |  |  |
| CS(=O)(=O)N1CCC(COc2coc(CN3Cc4ccccc4C3)cc2=O)CC1 [1A, 2-(isoindolin-2-ylmethyl)-5-((1-(methylsulfonyl)piperidin-4-yl)methoxy)-4H-pyran-4-one] |  |  |  |  | 92.3 | 70.6 | 5.0 | substantially higher |
